These results are taken from patent US5869482A, “Dipyridio[2,3-b:3',2'-] azepines and their use in the prevention or treatment of HIV infection” (priority 1997, dated 1999).

The target in assay [1] is HIV-1 reverse transcriptase, wild type (WT) (Human immunodeficiency virus type 1 (BRU ISOLATE), UniProt P03367). The experiment in a line: Reverse Transcriptase (RT) assay, wild type enzyme. The assay is classed as biochemical, Human Immunodeficiency Virus (HIV-1), LAV strain. Conditions: 1 μM compound; RNA-dependent DNA polymerase activity; read-out: RT (WT) % inh. (1 μM). From the text: Utilizing the Reverse Transcriptase (RT) Assay described below, compounds can be tested for their ability to inhibit the RNA-dependent DNA polymerase activity of HIV-1 RT.
Among the enzymes for which Human Immunodeficiency Virus (HIV-1) encodes is a reverse transcriptase (1), so-named because it transcribes a DNA copy from an RNA template. This activity can be quantitatively measured in a cell-free enzyme assay, which has been previously described (2), and is based upon the observation that reverse transcriptase is able to use a synthetic template [poly r(C) primed with oligo d(G)] to transcribe a radio-labelled, acid-precipitable DNA strand utilizing ^3 H-dGTP as a substrate. The assay described below utilizes the wild type (WT) enzyme, which is the predominant form of the enzyme observed in patients infected with HIV-1.
Reverse transcriptase enzyme from the LAV strain of Human Immunodeficiency Virus (HIV-1) (1) was isolated from the bacterial strain JM109 (3) expressing the DNA clone pBRTprtl+ (2) which is under the control of the lac promotor in the expression vector pIBI21 (4). […] At that time the repressor inhibitor IPTG (isopropyl β-D-thiogalactopyranoside) is added to 0.5 mM, and the mixture is incubated for 2 additional hours. […] The cells are lysed by the addition of 0.2% NP-40 and brought to 1M NaCl. […]

Another assay deals with T1, HIV-1 RT (Y181C) mutant (Human immunodeficiency virus type 1 (BRU ISOLATE), UniProt P03367, Y780C).
T1 construct: Y181C by site-directed mutagenesis
The assay is described as follows: biochemical. More on the design: species or system Human Immunodeficiency Virus (HIV-1). Conditions: 1 μM compound; RNA-dependent DNA polymerase activity; read-out: RT (Y181C) % inh. (1 μM).

A further assay has as its target T2, HIV-1 RT (L100I) mutant (Human immunodeficiency virus type 1 (BRU ISOLATE), UniProt P03367, L699I).
T2 construct: L100I mutant
The assay is classed as biochemical, Human Immunodeficiency Virus (HIV-1). Conditions: 1 μM compound; RNA-dependent DNA polymerase activity.

In the next assay the target is T3, HIV-1 RT (K103N) mutant (Human immunodeficiency virus type 1 group M subtype B, UniProt P03367, K702N).
T3 construct: Reverse transcriptase enzyme from the LAV strain; made in house; host or cells: E. coli JM109 with clone pBRTprtl+ in vector pIBI21 (stated for the wild-type enzyme; inferred for the K103N mutant)
The experiment in a line: biochemical. Details: species or system Human Immunodeficiency Virus (HIV-1). Conditions: 1 μM compound; RNA-dependent DNA polymerase activity; read-out: RT (K103N) % inh. (1 μM).

The target of another assay is T4, HIV-1 RT (P236L) mutant (Human immunodeficiency virus type 1 (BRU ISOLATE), UniProt P03367, P835L).
T4 construct: P236L mutant
It counts as biochemical, Human Immunodeficiency Virus (HIV-1). Conditions: 1 μM compound; RNA-dependent DNA polymerase activity.

`CCN1c2ncccc2C=Cc2cccnc21` [Example 1, 11-Ethyl-dipyrido[2,3-b:3',2'-f]azepine]: the inhibition at 1 µM in assay [1] is 98%; on HIV-1 RT (Y181C) mutant, 53%; on HIV-1 RT (K103N) mutant, 73%. Further, at HIV-1 RT (L100I) mutant, the “RT (L100I) % inh. (1 μM)” value was determined as 81%. At HIV-1 RT (P236L) mutant, the “RT (P236L) % inh. (1 μM)” value stood at 99%.

Regarding `C1=Cc2cccnc2N(C2CC2)c2ncccc21` [Example 2, 11-Cyclopropyl-dipyrido[2,3-b:3',2'-f]azepine], the inhibition at 1 µM in assay [1] was determined as 97%; at HIV-1 RT (Y181C) mutant, 41%; at HIV-1 RT (K103N) mutant, 55%. In addition, at HIV-1 RT (L100I) mutant, the “RT (L100I) % inh. (1 μM)” value was found to be 80%. Besides, the “RT (P236L) % inh. (1 μM)” value on HIV-1 RT (P236L) mutant is 98%.
